Measurements reported in patent US11230538B2, “Herbicides” (SYNGENTA PARTICIPATIONS AG, priority 2016, dated 2022).

Columns and labels:
Type in all cases: in vivo
Setaria fabenr (SETFA) = test: B1 Pre-emergence herbicidal activity; design: key to Pre-emergence herbicidal activity, SETFA (damage score 0-5): 5=total damage to plant; 0=no damage to plant; conditions: pre-emergence application, evaluated after 13 days
Method: (§1) Seeds of a variety of test species were sown in standard soil in pots: Triticum aestivium (TRZAW), Avena fatua (AVEFA), Alopecurus myosuroides (ALOMY), Echinochloa crus-galli (ECHCG), Lolium perenne (LOLPE), Zea Mays (ZEAMX), Abutilon theophrasti (ABUTH), Amaranthus retroflexus (AMARE) and Setaria fabenr (SETFA). After cultivation for one day (pre-emergence) under controlled conditions in a glasshouse (at 24/16° C., day/night; 14 hours light; 65% humidity), the plants were sprayed with an aqueous spray solution derived from the formulation of the technical active ingredient in acetone I water (50:50) solution containing 0.5% Tween 20 (polyoxyethelyene sorbitan monolaurate, CAS RN 9005-64-5). The test plants were then grown in a glasshouse under controlled conditions (at 24/16° C., day/night; 14 hours light; 65% humidity) and watered twice daily. After 13 days, the test was evaluated (5=total damage to plant; 0=no damage to plant).

Lolium perenne (LOLPE) = test: B1 Pre-emergence herbicidal activity; design: key to Pre-emergence herbicidal activity, LOLPE (damage score 0-5): 5=total damage to plant; 0=no damage to plant; conditions: pre-emergence application, evaluated after 13 days
Method: as §1

[1] = system: Echinochloa crus-galli (ECHCG); test: B2 Post-emergence herbicidal activity; conditions: post-emergence application, evaluated after 13 days
Method: (§2) Seeds of a variety of test species were sown in standard soil in pots: Triticum aestivium (TRZAW), Avena fatua (AVEFA), Alopecurus myosuroides (ALOMY), Echinochloa crus-galli (ECHCG), Lolium perenne (LOLPE), Zea Mays (ZEAMX), Abutilon theophrasti (ABUTH), Amaranthus retroflexus (AMARE) and Setaria fabenri (SETFA). After 8 days cultivation (post-emergence) under controlled conditions in a glasshouse (at 24/16° C., day/night; 14 hours light; 65% humidity), the plants were sprayed with an aqueous spray solution derived from the formulation of the technical active ingredient in acetone I water (50:50) solution containing 0.5% Tween 20 (polyoxyethelyene sorbitan monolaurate, CAS RN 9005-64-5). The test plants were then grown in a glasshouse under controlled conditions (at 24/16° C., day/night; 14 hours light; 65% humidity) and watered twice daily. After 13 days, the test was evaluated (5=total damage to plant; 0=no damage to plant).

[2] = system: Alopecurus myosuroides (ALOMY); test: B2 Post-emergence herbicidal activity; design: key: 5=total damage to plant; 0=no damage to plant; conditions: post-emergence application, evaluated after 13 days
Method: as §2

[3] = system: Triticum aestivium (TRZAW); test: B2 Post-emergence herbicidal activity; design: key: 5=total damage to plant; 0=no damage to plant; conditions: post-emergence application, evaluated after 13 days
Method: as §2

Setaria fabenri (SETFA) = test: B2 Post-emergence herbicidal activity; design: key: 5=total damage to plant; 0=no damage to plant; conditions: post-emergence application, evaluated after 13 days
Method: as §2

Avena fatua (AVEFA) = test: B1 Pre-emergence herbicidal activity; design: key: 5=total damage to plant; 0=no damage to plant; conditions: pre-emergence application, evaluated after 13 days
Method: as §1

[4] = system: Alopecurus myosuroides (ALOMY); test: B1 Pre-emergence herbicidal activity; design: key: 5=total damage to plant; 0=no damage to plant; conditions: pre-emergence application, evaluated after 13 days
Method: as §1

[5] = system: Triticum aestivium (TRZAW); test: B1 Pre-emergence herbicidal activity; design: key: 5=total damage to plant; 0=no damage to plant; conditions: pre-emergence application, evaluated after 13 days
Method: as §1

[6] = system: Echinochloa crus-galli (ECHCG); test: B1 Pre-emergence herbicidal activity; design: key to Pre-emergence herbicidal activity, ECHCG (damage score 0-5): 5=total damage to plant; 0=no damage to plant; conditions: pre-emergence application, evaluated after 13 days
Method: as §1

Compound	Pre-emergence herbicidal activity, SETFA (damage score 0-5) (Setaria fabenr (SETFA); rate 1000 g/ha)	Pre-emergence herbicidal activity, LOLPE (damage score 0-5) (Lolium perenne (LOLPE); rate 1000 g/ha)	Post-emergence herbicidal activity, ECHCG (damage score 0-5) ([1]; rate 1000 g/ha)	Post-emergence herbicidal activity, ALOMY (damage score 0-5) ([2]; rate 1000 g/ha)	Post-emergence herbicidal activity, TRAZW (damage score 0-5) ([3]; rate 1000 g/ha)	Post-emergence herbicidal activity, SETFA (damage score 0-5) (Setaria fabenri (SETFA); rate 1000 g/ha)	Pre-emergence herbicidal activity, AVEFA (damage score 0-5) (Avena fatua (AVEFA); rate 1000 g/ha)	Pre-emergence herbicidal activity, ALOMY (damage score 0-5) ([4]; rate 1000 g/ha)	Pre-emergence herbicidal activity, TRAZW (damage score 0-5) ([5]; rate 1000 g/ha)	Pre-emergence herbicidal activity, ECHCG (damage score 0-5) ([6]; rate 1000 g/ha)	Pre-emergence herbicidal activity, SETFA (damage score 0-5) (Setaria fabenr (SETFA); rate 250 g/ha)	Pre-emergence herbicidal activity, LOLPE (damage score 0-5) (Lolium perenne (LOLPE); rate 250 g/ha)	Post-emergence herbicidal activity, ECHCG (damage score 0-5) ([1]; rate 250 g/ha)	Post-emergence herbicidal activity, ALOMY (damage score 0-5) ([2]; rate 250 g/ha)	Post-emergence herbicidal activity, TRAZW (damage score 0-5) ([3]; rate 250 g/ha)	Post-emergence herbicidal activity, SETFA (damage score 0-5) (Setaria fabenri (SETFA); rate 250 g/ha)	Pre-emergence herbicidal activity, AVEFA (damage score 0-5) (Avena fatua (AVEFA); rate 250 g/ha)	Pre-emergence herbicidal activity, ALOMY (damage score 0-5) ([4]; rate 250 g/ha)	Pre-emergence herbicidal activity, TRAZW (damage score 0-5) ([5]; rate 250 g/ha)	Pre-emergence herbicidal activity, ECHCG (damage score 0-5) ([6]; rate 250 g/ha)
COCC(=O)N(Cc1cnc(Cl)s1)c1ccc(-c2cncc(F)c2)nc1C(F)(F)F [Compound C83]	4	1	2	0	0	3	1	0	0	2	–	–	–	–	–	–	–	–	–	–
COCC(=O)N(CC(=O)N(C)C)c1ccc(-c2cncc(F)c2)nc1C(F)(F)F [Compound C84]	5	1	3	1	0	4	1	0	0	2	–	–	–	–	–	–	–	–	–	–
CCC(=O)N(Cc1cnc(Cl)s1)c1ccc(-c2cncc(F)c2)nc1C(F)(F)F [Compound C102]	4	0	2	0	0	2	1	0	0	2	–	–	–	–	–	–	–	–	–	–
CC(C)C(=O)N(COCC(C)(C)C)c1ccc(-c2cncc(F)c2)nc1C(F)(F)F [Compound C89]	4	0	4	0	0	4	1	0	0	3	–	–	–	–	–	–	–	–	–	–
CC(C)C(=O)N(CC1CC1)c1ccc(-c2cncc(F)c2)nc1C(F)(F)F [Compound C87]	5	0	3	0	0	4	0	0	0	2	–	–	–	–	–	–	–	–	–	–
CSCCN(C(=O)c1ccccc1)c1ccc(-c2cncc(F)c2)nc1C(F)(F)F [Compound C104]	–	–	–	–	–	–	–	–	–	–	3	0	1	0	0	2	0	0	0	0
O=C(c1ccccc1)N(Cc1cnc(Cl)s1)c1ccc(-c2cncc(F)c2)nc1C(F)(F)F [Compound C78]	2	0	1	0	0	3	0	0	0	1	–	–	–	–	–	–	–	–	–	–
COCC(=O)N(COCC(C)(C)C)c1ccc(-c2cncc(F)c2)nc1C(F)(F)F [Compound C81]	5	2	4	0	0	5	1	0	0	3	–	–	–	–	–	–	–	–	–	–
COCC(=O)N(CC(C)C)c1ccc(-c2cncc(F)c2)nc1C(F)(F)F [Compound C79]	5	2	3	0	0	3	1	0	0	3	–	–	–	–	–	–	–	–	–	–
CCC(=O)N(Cc1ccc(Cl)cc1)c1ccc(-c2cncc(F)c2)nc1C(F)(F)F [Compound C101]	1	0	2	0	0	2	1	0	0	1	–	–	–	–	–	–	–	–	–	–
CCN(CC)CCCN(C(=O)C(C)C)c1ccc(-c2cncc(F)c2)nc1C(F)(F)F [Compound C69]	5	0	3	0	0	4	1	0	0	3	–	–	–	–	–	–	–	–	–	–
CC(C)(C)COCN(C(=O)c1ccccc1)c1ccc(-c2cncc(F)c2)nc1C(F)(F)F [Compound C76]	5	0	3	0	1	4	0	0	0	1	–	–	–	–	–	–	–	–	–	–
CCC(=O)N(COCC(F)(F)F)c1ccc(-c2cncc(F)c2)nc1C(F)(F)F [Compound C72]	4	0	2	0	0	3	0	0	0	1	–	–	–	–	–	–	–	–	–	–
